Test results: patent US20150218238A1, “TREATING DISEASES BY MODULATING A SPECIFIC ISOFORM OF MKL1” (NOVARTIS FORSCHUNGSSTIFTUNG, ZWEIGNIEDERLASSUNG FRIEDRICH …, priority 2012, published 2015)

Tested on: EcR-293 cells
Test: MKL1 localization by immunofluorescence after LPA stimulation
Format: cell-based
Settings: 50 μm LPA, 20 min
Protocol: Cells were grown on 4-compartment plastic tissue culture dishes (Greiner Bio-One, Kremsmünster, Austria) and fixed with 100% methanol at −20° C. for 15 min. Anti-MKL1 total mAb hybridoma supernatant was diluted 1:4 in PBS and incubated on the cells for 1.5 h at RT. After washing with PBS, fluorescent secondary antibodies were applied for 1.5 h at RT to visualize the MKL1 staining (1:1000 in PBS). After washing, coverslips were mounted on the cells using ProLong Gold Antifade reagent (life Technologies/Invitrogen).
Oleoyl-α-lysophosphatidic acid (LPA) was purchased from Sigma-Aldrich (Buchs, Switzerland) and stock solutions were prepared in 1% BSA (Sigma-Aldrich)/PBS. EcR-293 cells stably overexpressing 5′UTR-MKL1_S or 5′UTR-MKL1_L were seeded on plastic dishes precoated with 0.4 mg/ml poly-L-lysine (Sigma-Aldrich) and starved overnight with D-MEM/0.3% FBS. After 18 h starvation, the cells were treated with 50 μm LPA for 0, 5, 20, or 60 min, and subsequently stained with anti-MKL1 total mAb (see immunofluorescence staining). After staining, MKL1 staining of strongly overexpressing cells was classified as predominantly cytosolic (nucleus clearly distinguishable as unstained), equally distributed, or predominantly nuclear (nucleus clearly distinguishable as stained).

Oleoyl-α-lysophosphatidic acid [LPA]
cells showing nuclear staining (starved EcR-293 cells expressing MKL1_L): very few
cells showing partial or full nuclear MKL1 accumulation (starved EcR-293 cells expressing MKL1_S): two thirds
